{"source": "patent US20110046039A1", "about": "“POST-EXPOSURE PROPHYLAXIS AND TREATMENT OF INFECTIONS” (priority 2007, published 2011)", "key": {"cultured macrophages": {"tested_on": "cultured macrophages", "conditions": "cited from earlier work"}, "[1]": {"tested_on": "livers of anthrax-challenged mice", "conditions": "mouse, in vivo; cited from earlier work"}, "anthrax spores": {"tested_on": "anthrax spores", "parameters": "species or system DBA/2 mice", "conditions": "mouse, in vivo"}}, "note": "Where a SMILES comes first, the peptide text is derived from it. The star is where a group is joined. Cbz = O=C(OCc1ccccc1)*; CH2F = FC*"}
{"smiles": "COC(=O)C[C@H](NC(=O)[C@H](C)NC(=O)[C@@H](NC(=O)OCc1ccccc1)C(C)C)C(=O)CF", "note": "[z-VAD, z-Val-Ala-Asp(OMe)-fluoromethylketone] (Cbz-Val-Ala-Asp(OMe)-CH2F)", "values": [{"measurement": "anti-apoptotic effect", "setting": "cultured macrophages", "result": "protective anti-apoptopic effect"}, {"measurement": "anti-apoptotic effect", "setting": "[1]", "result": "protective anti-apoptopic effect"}]}
{"smiles": "CNC(=O)[C@H]1O[C@@H](n2cnc3c(NCc4cccc(I)c4)nc(Cl)nc32)[C@H](O)[C@@H]1O", "note": "[Cl-IB-MECA, 2-chloro-N^6-(3-iodobenzyl)-adenosine-5′-N-methyluronamide]", "values": [{"measurement": "protection of exposed animals", "setting": "anthrax spores", "result": 40, "unit": "%"}, {"measurement": "protection of mice against post-exposure anthrax", "setting": "anthrax spores", "result": "protect mice against post-exposure anthrax"}]}
{"smiles": "O=C(O)c1cn(C2CC2)c2cc(N3CCNCC3)c(F)cc2c1=O", "note": "[ciprofloxacin]", "values": [{"measurement": "animals protected", "setting": "anthrax spores; ip, 50 mg/kg", "result": 30, "unit": "%"}]}
{"smiles": "CNC(=O)[C@H]1O[C@@H](n2cnc3c(NCc4cccc(I)c4)ncnc32)[C@H](O)[C@@H]1O", "note": "[IB-MECA, N^6-(3-iodobenzyl)-adenosine-5′-N-methyluronamide]", "values": [{"measurement": "protection of mice against post-exposure anthrax", "setting": "anthrax spores", "result": "protect mice against post-exposure anthrax"}]}
